Results reported in patent US6337394B2, “Compounds” (AstraZeneca AB, priority 1997, dated 2002).

Target: T1, Human thrombin (Homo sapiens, UniProt P00734)
T1 construct: purchased Sigma Chem. Co. T 6769
Test: Determination of Thrombin Clotting Time (TT), Test A
Assay type: biochemical
Settings: concentration of inhibitor that doubles the thrombin clotting time for human plasma; pooled normal citrated human plasma, pH 7.4
Experimental: Determination of Thrombin Clotting Time (TT)
Human thrombin (T 6769, Sigma Chem. Co.) in buffer solution, pH 7.4, 100 μL, and inhibitor solution, 100 μL, were incubated for one min. Pooled normal citrated human plasma, 100 μL, was then added and the clotting time measured in an automatic device (KC 10, Amelumg).
The clotting time in seconds was plotted against the inhibitor concentration, and the IC50TT was determined by interpolation.
IC50TT is the concentration of inhibitor in the test that doubles the thrombin clotting time for human plasma.

- IC50: < 300 nM
Structure (SMILES): COc1ccc(OC)c(C(CO)C(=O)N2CCCC2C(=O)NCc2ccc(C(=N)N)cc2C)c1 (single isomer, unassigned) [Example 2, (2,5-diMeO)Ph—(R or S)CH(CH2OH)—CO-Pro-Pab(2-Me)×HOAc]
